{"source": "BindingDB's records for doi:10.1016/j.bioorg.2016.07.010", "about": "(Universiti Teknologi Mara (Uitm), 2016)", "data": [{"target": "Thymidine phosphorylase (Escherichia coli O45:K1 (strain S88 / ExPEC), UniProt B7MNI9)", "sequence (B7MNI9 whole entry)": "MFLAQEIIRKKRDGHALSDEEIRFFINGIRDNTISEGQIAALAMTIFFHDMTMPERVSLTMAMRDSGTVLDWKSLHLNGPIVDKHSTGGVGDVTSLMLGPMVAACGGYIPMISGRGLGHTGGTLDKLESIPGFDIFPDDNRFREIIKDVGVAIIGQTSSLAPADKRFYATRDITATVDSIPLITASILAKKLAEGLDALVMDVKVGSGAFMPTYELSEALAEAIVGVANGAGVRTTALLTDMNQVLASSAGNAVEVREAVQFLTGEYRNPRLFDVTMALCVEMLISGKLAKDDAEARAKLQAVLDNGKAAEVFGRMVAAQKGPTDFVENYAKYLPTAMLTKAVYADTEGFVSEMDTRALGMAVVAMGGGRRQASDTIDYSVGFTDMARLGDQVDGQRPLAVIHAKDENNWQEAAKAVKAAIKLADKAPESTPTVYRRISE", "assay": "Thymidine Phosphorylase Assay", "conditions": "pH 7.4; 25 °C", "procedure": "The Thymidine phosphorylase/PD-ECGF (E. coli) activity was determined by measuring the absorbance at 290 nm spectrophotometrically. In brief, total reaction mixture of 200 uL contained 145 uL of potassium phosphate buffer (pH 7.4), 30 uL of enzyme (E. coli) at concentration 0.05 and 0.002 U, respectively, were incubated with 5 uL of test materials for 10 min at 25 °C in microplate reader. After incubation, preread at 290 nm was taken to deduce the absorbance of substrate particles. Substrate (20 uL, 1.5 mM), was dissolved in potassium phosphate buffer, was immediately added to plate and continuously read after 10, 20, and 30 min in microplate reader (spectra max, molecular devices, CA, USA). All assays were performed in triplicate.", "units": {"IC50": "µM"}, "values": [{"smiles": "COc1ccc(/C=N/Nc2cnc3ccccc3n2)cc1O", "note": "[(E)-2-methoxy-5-((2-(quinoxalin-2-yl)hydrazono)methyl)phenol (21)]", "IC50": 46.9}, {"smiles": "COc1ccc(/C=N/Nc2cnc3ccccc3n2)c(O)c1", "note": "[(E)-5-methoxy-2-((2-(quinoxalin-2-yl)hydrazono)methyl)phenol (20)]", "IC50": 34.4}, {"smiles": "COc1ccc(O)c(/C=N/Nc2cnc3ccccc3n2)c1", "note": "[(E)-4-methoxy-2-((2-(quinoxalin-2-yl)hydrazono)methyl)phenol (24)]", "IC50": 36.3}, {"smiles": "Oc1cc(O)c(/C=N/Nc2cnc3ccccc3n2)cc1O", "note": "[(E)-5-((2-(quinoxalin-2-yl)hydrazono)methyl)benzene-1,2,4-triol (18)]", "IC50": 3.2}, {"smiles": "Oc1ccc(O)c(/C=N/Nc2cnc3ccccc3n2)c1", "note": "[(E)-2-((2-(quinoxalin-2-yl)hydrazono)methyl)benzene-1,4-diol (16)]", "IC50": 35.5}, {"smiles": "Clc1cccc(/C=N/Nc2cnc3ccccc3n2)c1", "note": "[(E)-2-(2-(3-chlorobenzylidene)hydrazinyl)quinoxaline (5)]", "IC50": 93.5}, {"smiles": "Fc1ccccc1/C=N/Nc1cnc2ccccc2n1", "note": "[(E)-2-(2-(2-fluorobenzylidene)hydrazinyl)quinoxaline (1)]", "IC50": 33.6}, {"smiles": "Oc1cc(O)c(/C=N/Nc2cnc3ccccc3n2)c(O)c1", "note": "[(E)-5-((2-(quinoxalin-2-yl)hydrazono)methyl)benzene-2,4,6-triol (19)]", "IC50": 9.1}, {"smiles": "Clc1ccccc1/C=N/Nc1cnc2ccccc2n1", "note": "[(E)-2-(2-(2-chlorobenzylidene)hydrazinyl)quinoxaline (4)]", "IC50": 37.6}, {"smiles": "O=c1[nH]c(=O)c2cc[nH]c2[nH]1", "note": "[1,7-Dihydro-pyrrolo[2,3-d]pyrimidine-2,4-dione]", "IC50": 38.7}, {"smiles": "Fc1cccc(/C=N/Nc2cnc3ccccc3n2)c1", "note": "[(E)-2-(2-(3-fluorobenzylidene)hydrazinyl)quinoxaline (2)]", "IC50": 66.1}, {"smiles": "Oc1cccc(/C=N/Nc2cnc3ccccc3n2)c1", "note": "[(E)-3-((2-(quinoxalin-2-yl)hydrazono)methyl)phenol (12)]", "IC50": 63.2}, {"smiles": "Oc1cccc(/C=N/Nc2cnc3ccccc3n2)c1O", "note": "[(E)-3-((2-(quinoxalin-2-yl)hydrazono)methyl)benzene-1,2-diol (14)]", "IC50": 15.4}, {"smiles": "Fc1ccc(/C=N/Nc2cnc3ccccc3n2)cc1", "note": "[(E)-2-(2-(4-fluorobenzylidene)hydrazinyl)quinoxaline (3)]", "IC50": 58.1}, {"smiles": "Oc1ccc(/C=N/Nc2cnc3ccccc3n2)c(O)c1", "note": "[(E)-4-((2-(quinoxalin-2-yl)hydrazono)methyl)benzene-1,3-diol (15)]", "IC50": 33.4}, {"smiles": "Oc1ccc(/C=N/Nc2cnc3ccccc3n2)cc1O", "note": "[(E)-4-((2-(quinoxalin-2-yl)hydrazono)methyl)benzene-1,2-diol (17)]", "IC50": 8.6}, {"smiles": "Oc1ccc(/C=N/Nc2cnc3ccccc3n2)cc1", "note": "[(E)-4-((2-(quinoxalin-2-yl)hydrazono)methyl)phenol (13)]", "IC50": 48.6}, {"smiles": "C(=N\\Nc1cnc2ccccc2n1)/c1c[nH]c2ccccc12", "note": "[(E)-2-(2-((1H-indol-3-yl)methylene)hydrazinyl)quinoxaline (27)]", "IC50": 84.3}, {"smiles": "Oc1ccccc1/C=N/Nc1cnc2ccccc2n1", "note": "[(E)-2-((2-(quinoxalin-2-yl)hydrazono)methyl)phenol (28)]", "IC50": 37.2}]}]}
